Data taken from ChEMBL document CHEMBL3880414, “Isoform Selective HDAC Inhibitors” (2010).
Calls of active or inactive are those of the source. The rule behind the calls is not given here.

Legend:
Plasmodium falciparum [1] = test: Antiparasitic activity against chloroquine-resistant/verapamil-sensitive Plasmodium falciparum FCB; type: functional
Plasmodium falciparum [2] = test: Antiparasitic activity against chloroquine-resistant/verapamil-sensitive Plasmodium falciparum VS/1; type: functional
Plasmodium falciparum [3] = test: Antiparasitic activity against chloroquine-resistant/verapamil-sensitive Plasmodium falciparum Dd2; type: functional
Plasmodium falciparum [4] = test: Potentiation of chloroquine-induced anitiparasitic activity in chloroquine-resistant/verapamil-sensitive Plasmodium falciparum FCB assessed as decrease in chloroquine IC50 relative to control; type: functional
Plasmodium falciparum [5] = test: Potentiation of chloroquine-induced anitiparasitic activity in chloroquine-resistant/verapamil-sensitive Plasmodium falciparum Dd2 assessed as decrease in chloroquine IC50 relative to control; type: functional
Plasmodium falciparum [6] = test: Antiparasitic activity against chloroquine-sensitive Plasmodium falciparum 3D7; type: functional
Plasmodium falciparum [7] = test: Antiparasitic activity against chloroquine-sensitive Plasmodium falciparum HB3; type: functional
Plasmodium falciparum [8] = test: Antiparasitic activity against chloroquine-resistant/verapamil-sensitive Plasmodium falciparum FCR-3/Gambia; type: functional
Plasmodium falciparum [9] = test: Antiparasitic activity against chloroquine-resistant/verapamil-insensitive Plasmodium falciparum 7G8; type: functional
[10] = Antiproliferative activity against human MCF10A cells; type: cell-based; conditions: MCF-10A
[11] = Antiproliferative activity against human HS68 cells; type: cell-based
[12] = molecular target: T1, Histone deacetylase (Homo sapiens) (UniProt Q13547+O15379+Q9UBN7+Q92769+Q9UQL6+Q8WUI4+Q9BY41+Q96DB2+P56524+Q9UKV0+Q969S8); test: Potency index, ratio of trichostatin A IC50 to compound IC50 for HDAC (unknown origin); type: protein assay
[13] = Antiproliferative activity against human DU145 cells; type: functional, cell-based; conditions: DU-145
[14] = Antiproliferative activity against human SCC35 cells; type: functional, cell-based
[15] = Antiproliferative activity against human NHP5 cells; type: cell-based
Plasmodium falciparum [16] = test: Antiparasitic activity against Plasmodium falciparum 3D7 assessed as growth inhibition; type: functional
[17] = Antiproliferative activity against human MDA231 cells; type: functional, cell-based; conditions: MDA-MB-231
Plasmodium falciparum [18] = test: Antiparasitic activity against Plasmodium falciparum Dd2 assessed as growth inhibition; type: functional
[19] = Antiproliferative activity against human MCF7/ADR cells; type: functional, cell-based; conditions: NCI/ADR-RES
Plasmodium falciparum [20] = test: Antiparasitic activity against Plasmodium falciparum 7G8 assessed as growth inhibition after 56 hrs; type: functional
Plasmodium falciparum [21] = test: Antiparasitic activity against Plasmodium falciparum FCR-3/Gambia assessed as growth inhibition after 56 hrs; type: functional
Plasmodium falciparum [22] = test: Antiparasitic activity against Plasmodium falciparum Dd2 assessed as growth inhibition after 56 hrs; type: functional
Plasmodium falciparum [23] = test: Antiparasitic activity against Plasmodium falciparum 3D7 assessed as growth inhibition after 56 hrs; type: functional
[24] = molecular target: T1, Histone deacetylase (Homo sapiens); test: Inhibition of HDAC (unknown origin) at 100 nM using Fluor-Lys as substrate relative to control; type: protein assay
Plasmodium falciparum [25] = test: Antiparasitic activity against chloroquine-resistant/verapamil-sensitive Plasmodium falciparum Dd2 assessed as growth inhibition in presence of chloroquine; type: functional

CN(C)c1ccc(NC(=O)NCCCCCCC(=O)NO)cc1
IC50 (Plasmodium falciparum [1]): 125 nM | IC50 (Plasmodium falciparum [2]): 250 nM | IC50 (Plasmodium falciparum [3]): 185 nM | fold change (FC) (Plasmodium falciparum [4]): 5.5 | fold change (FC) (Plasmodium falciparum [5]): 3.5 | IC50 (Plasmodium falciparum [6]): 450 nM | IC50 (Plasmodium falciparum [7]): 250 nM | IC50 (Plasmodium falciparum [8]): 175 nM | IC50 (Plasmodium falciparum [9]): 300 nM

N[C@@H](Cc1c[nH]c2ccccc12)C(=O)Nc1ccccc1-c1ccc(NC(=O)CCCCCCC(=O)NO)cc1
IC50 [10]: > 100000 nM | IC50 [11]: > 300000 nM

CCOC(=O)Nc1cccc(-c2csc(NC(=O)CCCCCCC(=O)NO)n2)c1
Ratio IC50 [12]: 2 | IC50 [13]: 520 nM | IC50 [14]: 190 nM

N[C@@H](Cc1ccc(O)cc1)C(=O)Nc1ccccc1-c1ccc(NC(=O)CCCCCCC(=O)NO)cc1
IC50 [15]: 100000 nM | IC50 [10]: > 100000 nM | IC50 [11]: > 300000 nM

O=C(CCCCCCC(=O)Nc1ccc(-c2ccccc2)cc1)NO
IC50 [13]: 580 nM | growth inhibition (GI) (Plasmodium falciparum [16]): Active | IC50 [17]: < 400 nM | growth inhibition (GI) (Plasmodium falciparum [18]): Active | IC50 [19]: 350 nM | IC50 [14]: 100 nM | growth inhibition (GI) (Plasmodium falciparum [20]): Active

O=C(CCCCCCC(=O)Nc1nc(-c2ccccc2)cs1)NO
growth inhibition (GI) (Plasmodium falciparum [21]): Active | IC50 [13]: 190 nM | IC50 [17]: < 400 nM | IC50 [19]: 400 nM | growth inhibition (GI) (Plasmodium falciparum [22]): Active | growth inhibition (GI) (Plasmodium falciparum [23]): Active | IC50 [14]: 280 nM | growth inhibition (GI) (Plasmodium falciparum [20]): Active

N[C@@H](Cc1ccccc1)C(=O)Nc1ccccc1-c1ccc(NC(=O)CCCCCCC(=O)NO)cc1
IC50 [10]: 100000 nM

Nc1ccccc1-c1csc(NC(=O)CCCCCCC(=O)NO)n1
inhibition [24]: 2%

Nc1ccccc1-c1ccc(NC(=O)CCCCCCC(=O)NO)cc1
IC50 [13]: 180 nM | growth inhibition (GI) (Plasmodium falciparum [16]): Active | IC50 [17]: 1000 nM | growth inhibition (GI) (Plasmodium falciparum [18]): Active | IC50 [19]: 10000 nM | IC50 [14]: 2580 nM | growth inhibition (GI) (Plasmodium falciparum [20]): Active

O=C(CCCCCCC(=O)Nc1nc(-c2cccc([N+](=O)[O-])c2)cs1)NO
growth inhibition (GI) (Plasmodium falciparum [21]): Active | IC50 (Plasmodium falciparum [3]): 12 nM | IC50 [13]: 320 nM | IC50 [17]: < 400 nM | IC50 [19]: 3000 nM | IC50 (Plasmodium falciparum [6]): 30 nM | IC50 (Plasmodium falciparum [8]): 22 nM | IC50 (Plasmodium falciparum [9]): 10 nM | growth inhibition (GI) (Plasmodium falciparum [22]): Active | growth inhibition (GI) (Plasmodium falciparum [23]): Active | IC50 [14]: 380 nM | growth inhibition (GI) (Plasmodium falciparum [20]): Active

Nc1cccc(-c2csc(NC(=O)CCCCCCC(=O)NO)n2)c1
growth inhibition (GI) (Plasmodium falciparum [21]): Active | IC50 [13]: 320 nM | growth inhibition (GI) (Plasmodium falciparum [25]): Active | IC50 [17]: < 400 nM | IC50 [19]: 3000 nM | IC50 (Plasmodium falciparum [6]): 1.25 nM | IC50 (Plasmodium falciparum [7]): 0.9 nM | IC50 (Plasmodium falciparum [9]): 0.175 nM | growth inhibition (GI) (Plasmodium falciparum [22]): Active | growth inhibition (GI) (Plasmodium falciparum [23]): Active | IC50 [14]: 100 nM | growth inhibition (GI) (Plasmodium falciparum [20]): Active
